Test results published in patent US10681909B2, “Herbicidal triazoles” (FMC Corporation, priority 2014, dated 2020).

What was measured:
barley, spring = test: Test D postemergence; type: in vivo, Hordeum vulgare; details: scale 0 to 100
From the text: (§1) Seeds of plant species selected from bluegrass (annual bluegrass, Poa annua), blackgrass (Alopecurus myosuroides), canarygrass (Phalaris minor), chickweed (common chickweed, Stellaria media), galium (catchweed bedstraw, Galium aparine), bromegrass, down (downy bromegrass, Bromus tectorum), Russian thistle (Salsola kali), field poppy (Papaver rhoeas), field violet (Viola arvensis), foxtail, green (green foxtail, Setaria viridis), deadnettle (henbit deadnettle, Lamium amplexicaule), ryegrass, Ital. (Italian ryegrass, Lolium multiflorum), kochia (Kochia scoparia), lambsquarters (Chenopodium album), oilseed rape (Brassica napus), pigweed (Amaranthus retroflexus), chamomile (scentless chamomile, Matricaria inodora), speedwell (bird's-eye speedwell, Veronica persica), barley, spring (spring barley, Hordeum vulgare), wheat, spring (spring wheat, Triticum aestivum), buckwheat, wild (wild buckwheat, Polygonum convolvulus), wild mustard (Sinapis arvensis), oat, wild (wild oat, Avena fatua), radish, wild (wild radish, Raphanus raphanistrum), […]), barley, winter (winter barley, Hordeum vulgare), and wheat, winter (winter wheat, Triticum aestivum) were planted into a silt loam soil and treated preemergence with test chemicals formulated in a non-phytotoxic solvent mixture which included a surfactant. At the same time, these species were planted in pots containing Sunshine Redi-Earth® planting medium comprising spaghnum peat moss, vermiculite, starter nutrients and dolomitic limestone and treated with postemergence applications of the test chemicals formulated in the same manner. Plants ranged in height from 2 to 18 cm (1- to 4-leaf stage). Treated plants and controls were maintained in a controlled growth environment for 14 to 21 d after which time all species were compared to controls and visually evaluated. […] A dash (-) response means no test result.

barley, winter = test: Test D postemergence; type: in vivo, Hordeum vulgare; details: scale 0 to 100
From the text: as §1

corn = test: Test C preemergence; type: in vivo, Zea mays; details: for Plant response rating (scale of 0 to 100 where 0 is no effect and 100 is complete control): Corn, preemergence; for Corn plant response rating (0 to 100): Preemergence, visual rating after 13 to 15 d
From the text: (§2) Seeds of plant species selected from blackgrass (Alopecurus myosuroides), ryegrass, Italian (Italian ryegrass, Lolium multiflorum), wheat (winter wheat, Triticum aestivum), galium (catchweed bedstraw, Galium aparine), corn (Zea mays), crabgrass, large (large crabgrass, Digitaria sanguinalis), foxtail, giant, (giant foxtail, Setaria faberii), johnsongrass (Sorghum halepense), lambsquarters (Chenopodium album), morningglory (Ipomoea coccinea), nutsedge, yellow (yellow nutsedge, Cyperus esculentus), pigweed (Amaranthus retroflexus), ragweed (common ragweed, Ambrosia elatior), soybean (Glycine max), barnyardgrass (Echinochloa crus-galli), oilseed rape (Brassica napus), waterhemp (common waterhemp, Amaranthus rudis), and velvetleaf (Abutilon theophrasti) were planted into a blend of loam soil and sand and treated preemergence with test chemicals formulated in a non-phytotoxic solvent mixture which included a surfactant. At the same time, plants selected from these crop and weed species and also chickweed (common chickweed, Stellaria media), oat, wild (wild oat, Avena fatua), and kochia (Kochia scoparia), were planted in pots containing Sunshine Redi-Earth® planting medium comprising spaghnum peat moss, vermiculite, starter nutrients and dolomitic limestone and treated with postemergence applications of test chemicals formulated in the same manner. Plants ranged in height from 2 to 18 cm (1- to 4-leaf stage) for postemergence treatments. […] A dash (-) response means no test result.

radish, wild = test: Test D preemergence; type: in vivo, Raphanus raphanistrum; details: for Plant response rating: Radish, Wild: scale 0 to 100
From the text: as §1

buckwheat, wild = test: Test D preemergence; type: in vivo, Polygonum convolvulus; details: for Plant response rating (0 to 100), Buckwheat, Wild: 16 g ai/ha, 0 is no effect, 100 is complete control; for Plant response rating: Buckwheat, Wild: scale 0 to 100
From the text: as §1

oat, wild = test: Test D postemergence; type: in vivo, Avena fatua; details: scale 0 to 100
From the text: as §1

oilseed rape [1] = test: Test C preemergence; type: in vivo, Brassica napus; details: for Plant response rating (scale of 0 to 100 where 0 is no effect and 100 is complete control): Oilseed Rape, preemergence; for Oilseed Rape plant response rating (0 to 100): Preemergence, visual rating after 13 to 15 d
From the text: as §2

speedwell = test: Test D postemergence; type: in vivo, Veronica persica; details: scale 0 to 100
From the text: as §1

lambsquarters = test: Test C preemergence; type: in vivo, Chenopodium album; details: for Plant response rating (scale of 0 to 100 where 0 is no effect and 100 is complete control): Lambsquarters, preemergence; for Lambsquarters plant response rating (0 to 100): Preemergence, visual rating after 13 to 15 d
From the text: as §2

oilseed rape [2] = test: Test D preemergence; type: in vivo, Brassica napus; details: for Plant response rating (0 to 100), Oilseed Rape: 16 g ai/ha, 0 is no effect, 100 is complete control; for Plant response rating: Oilseed Rape: scale 0 to 100
From the text: as §1

galium = test: Test D preemergence; type: in vivo, Galium aparine; details: for Plant response rating (0 to 100), Galium: 16 g ai/ha, 0 is no effect, 100 is complete control; for Plant response rating: Galium: scale 0 to 100
From the text: as §1

bromegrass, down = test: Test D preemergence; type: in vivo, Bromus tectorum; details: for Plant response rating (0 to 100), Bromegrass, Down: 16 g ai/ha, 0 is no effect, 100 is complete control; for Plant response rating: Bromegrass, Down: scale 0 to 100
From the text: as §1

canarygrass = test: Test D preemergence; type: in vivo, Phalaris minor; details: for Plant response rating (0 to 100), Canarygrass: 16 g ai/ha, 0 is no effect, 100 is complete control; for Plant response rating: Canarygrass: scale 0 to 100
From the text: as §1

Compound: FC(F)(F)COc1nc(-c2ccc(Cl)cc2)nn1Cc1ccnc(C(F)(F)F)c1 [Compound 31]
- Plant response rating: Barley, Spring (barley, spring; 16 g ai/ha): 35
- Plant response rating: Barley, Spring (barley, spring; 31 g ai/ha): 45
- Plant response rating: Barley, Spring (barley, spring; 62 g ai/ha): 45
- Plant response rating: Barley, Spring (barley, spring; 125 g ai/ha): 50
- Plant response rating: Barley, Winter (barley, winter; 16 g ai/ha): 25
- Plant response rating: Barley, Winter (barley, winter; 31 g ai/ha): 35
- Plant response rating: Barley, Winter (barley, winter; 62 g ai/ha): 40
- Plant response rating: Barley, Winter (barley, winter; 125 g ai/ha): 50
- Plant response rating (scale of 0 to 100 where 0 is no effect and 100 is complete control) (corn; 125 g ai/ha): 20
- Plant response rating (scale of 0 to 100 where 0 is no effect and 100 is complete control) (corn; 250 g ai/ha): 25
- Corn plant response rating (0 to 100) (corn; 31 g ai/ha): 0
- Corn plant response rating (0 to 100) (corn; 62 g ai/ha): 0
- Plant response rating: Radish, Wild (radish, wild; 62 g ai/ha): 100
- Plant response rating: Radish, Wild (radish, wild; 125 g ai/ha): 100
- Plant response rating (0 to 100), Buckwheat, Wild (buckwheat, wild): 65
- Plant response rating: Buckwheat, Wild (buckwheat, wild; 31 g ai/ha): 75
- Plant response rating: Buckwheat, Wild (buckwheat, wild; 62 g ai/ha): 75
- Plant response rating: Buckwheat, Wild (buckwheat, wild; 125 g ai/ha): 75
- Plant response rating: Oat, Wild (oat, wild; 16 g ai/ha): 35
- Plant response rating: Oat, Wild (oat, wild; 31 g ai/ha): 45
- Plant response rating: Oat, Wild (oat, wild; 62 g ai/ha): 70
- Plant response rating: Oat, Wild (oat, wild; 125 g ai/ha): 75
- Plant response rating (scale of 0 to 100 where 0 is no effect and 100 is complete control) (oilseed rape [1]; 125 g ai/ha): 45
- Plant response rating (scale of 0 to 100 where 0 is no effect and 100 is complete control) (oilseed rape [1]; 250 g ai/ha): 85
- Oilseed Rape plant response rating (0 to 100) (oilseed rape [1]; 31 g ai/ha): 10
- Oilseed Rape plant response rating (0 to 100) (oilseed rape [1]; 62 g ai/ha): 20
- Plant response rating: Speedwell (speedwell; 16 g ai/ha): 95
- Plant response rating: Speedwell (speedwell; 31 g ai/ha): 90
- Plant response rating: Speedwell (speedwell; 62 g ai/ha): 100
- Plant response rating: Speedwell (speedwell; 125 g ai/ha): 100
- Plant response rating (scale of 0 to 100 where 0 is no effect and 100 is complete control) (lambsquarters; 125 g ai/ha): 100
- Plant response rating (scale of 0 to 100 where 0 is no effect and 100 is complete control) (lambsquarters; 250 g ai/ha): 98
- Lambsquarters plant response rating (0 to 100) (lambsquarters; 31 g ai/ha): 90
- Lambsquarters plant response rating (0 to 100) (lambsquarters; 62 g ai/ha): 100
- Plant response rating (0 to 100), Oilseed Rape (oilseed rape [2]): 10
- Plant response rating: Oilseed Rape (oilseed rape [2]; 62 g ai/ha): 35
- Plant response rating: Oilseed Rape (oilseed rape [2]; 125 g ai/ha): 35
- Plant response rating (0 to 100), Galium (galium): 70
- Plant response rating: Galium (galium; 62 g ai/ha): 80
- Plant response rating: Galium (galium; 125 g ai/ha): 90
- Plant response rating (0 to 100), Bromegrass, Down (bromegrass, down): 25
- Plant response rating: Bromegrass, Down (bromegrass, down; 31 g ai/ha): 25
- Plant response rating: Bromegrass, Down (bromegrass, down; 62 g ai/ha): 50
- Plant response rating: Bromegrass, Down (bromegrass, down; 125 g ai/ha): 55
- Plant response rating (0 to 100), Canarygrass (canarygrass): 50
- Plant response rating: Canarygrass (canarygrass; 31 g ai/ha): 85
- Plant response rating: Canarygrass (canarygrass; 62 g ai/ha): 90
- Plant response rating: Canarygrass (canarygrass; 125 g ai/ha): 100

Compound: FC(F)(F)COc1nc(-c2ccccc2)nn1Cc1ccnc(C(F)(F)F)c1 [Compound 24]
- Plant response rating: Barley, Spring (barley, spring; 16 g ai/ha): 20
- Plant response rating: Barley, Spring (barley, spring; 31 g ai/ha): 25
- Plant response rating: Barley, Spring (barley, spring; 62 g ai/ha): 30
- Plant response rating: Barley, Spring (barley, spring; 125 g ai/ha): 35
- Plant response rating: Barley, Winter (barley, winter; 16 g ai/ha): 15
- Plant response rating: Barley, Winter (barley, winter; 31 g ai/ha): 15
- Plant response rating: Barley, Winter (barley, winter; 62 g ai/ha): 25
- Plant response rating: Barley, Winter (barley, winter; 125 g ai/ha): 25
- Plant response rating (scale of 0 to 100 where 0 is no effect and 100 is complete control) (corn; 125 g ai/ha): 25
- Plant response rating (scale of 0 to 100 where 0 is no effect and 100 is complete control) (corn; 250 g ai/ha): 40
- Corn plant response rating (0 to 100) (corn; 31 g ai/ha): 0
- Corn plant response rating (0 to 100) (corn; 62 g ai/ha): 10
- Plant response rating (0 to 100), Radish, Wild (radish, wild; 16 g ai/ha, 0 is no effect, 100 is complete control): 45
- Plant response rating: Radish, Wild (radish, wild; 62 g ai/ha): 75
- Plant response rating: Radish, Wild (radish, wild; 125 g ai/ha): 100
- Plant response rating (0 to 100), Buckwheat, Wild (buckwheat, wild): 50
- Plant response rating: Buckwheat, Wild (buckwheat, wild; 31 g ai/ha): 55
- Plant response rating: Buckwheat, Wild (buckwheat, wild; 62 g ai/ha): 60
- Plant response rating: Buckwheat, Wild (buckwheat, wild; 125 g ai/ha): 70
- Plant response rating: Oat, Wild (oat, wild; 16 g ai/ha): 35
- Plant response rating: Oat, Wild (oat, wild; 31 g ai/ha): 45
- Plant response rating: Oat, Wild (oat, wild; 62 g ai/ha): 50
- Plant response rating: Oat, Wild (oat, wild; 125 g ai/ha): 55
- Plant response rating (scale of 0 to 100 where 0 is no effect and 100 is complete control) (oilseed rape [1]; 125 g ai/ha): 35
- Plant response rating (scale of 0 to 100 where 0 is no effect and 100 is complete control) (oilseed rape [1]; 250 g ai/ha): 98
- Oilseed Rape plant response rating (0 to 100) (oilseed rape [1]; 31 g ai/ha): 5
- Oilseed Rape plant response rating (0 to 100) (oilseed rape [1]; 62 g ai/ha): 30
- Plant response rating: Speedwell (speedwell; 16 g ai/ha): 75
- Plant response rating: Speedwell (speedwell; 31 g ai/ha): 75
- Plant response rating: Speedwell (speedwell; 62 g ai/ha): 75
- Plant response rating: Speedwell (speedwell; 125 g ai/ha): 90
- Plant response rating (scale of 0 to 100 where 0 is no effect and 100 is complete control) (lambsquarters; 125 g ai/ha): 85
- Plant response rating (scale of 0 to 100 where 0 is no effect and 100 is complete control) (lambsquarters; 250 g ai/ha): 85
- Lambsquarters plant response rating (0 to 100) (lambsquarters; 31 g ai/ha): 60
- Lambsquarters plant response rating (0 to 100) (lambsquarters; 62 g ai/ha): 75
- Plant response rating (0 to 100), Oilseed Rape (oilseed rape [2]): 15
- Plant response rating: Oilseed Rape (oilseed rape [2]; 62 g ai/ha): 55
- Plant response rating: Oilseed Rape (oilseed rape [2]; 125 g ai/ha): 70
- Plant response rating (0 to 100), Galium (galium): 55
- Plant response rating: Galium (galium; 62 g ai/ha): 65
- Plant response rating: Galium (galium; 125 g ai/ha): 75
- Plant response rating (0 to 100), Bromegrass, Down (bromegrass, down): 25
- Plant response rating: Bromegrass, Down (bromegrass, down; 31 g ai/ha): 40
- Plant response rating: Bromegrass, Down (bromegrass, down; 62 g ai/ha): 35
- Plant response rating: Bromegrass, Down (bromegrass, down; 125 g ai/ha): 40
- Plant response rating (0 to 100), Canarygrass (canarygrass): 55
- Plant response rating: Canarygrass (canarygrass; 31 g ai/ha): 50
- Plant response rating: Canarygrass (canarygrass; 62 g ai/ha): 60
- Plant response rating: Canarygrass (canarygrass; 125 g ai/ha): 75
